Molecular target: T1, malonyl-CoA decarboxylase prepared from rat heart (Rattus norvegicus, UniProt Q920F5)
T1 construct: malonyl-CoA decarboxylase prepared from rat heart; from tissue; host or cells: rat heart
T1 sequence (Q920F5 39-492): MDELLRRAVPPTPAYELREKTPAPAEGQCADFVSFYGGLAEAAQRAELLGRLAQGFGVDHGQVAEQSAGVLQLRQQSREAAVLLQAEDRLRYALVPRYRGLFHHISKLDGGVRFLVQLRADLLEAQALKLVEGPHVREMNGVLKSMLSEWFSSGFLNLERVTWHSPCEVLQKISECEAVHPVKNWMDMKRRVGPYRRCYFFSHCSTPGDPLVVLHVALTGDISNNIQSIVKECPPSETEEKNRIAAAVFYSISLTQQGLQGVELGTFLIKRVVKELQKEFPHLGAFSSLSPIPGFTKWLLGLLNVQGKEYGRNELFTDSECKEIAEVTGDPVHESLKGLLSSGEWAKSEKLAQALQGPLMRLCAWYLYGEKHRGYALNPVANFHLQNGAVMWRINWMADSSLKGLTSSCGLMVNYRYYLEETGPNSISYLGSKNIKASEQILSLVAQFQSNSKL
Assay: In Vitro MCD inhibitory assay (spectrophotometric, 96 well)
Type: biochemical
Conditions: read-out: IC50 of the MCD inhibitors
Method: The following reagents are added into a 96 well titer plate: Tris-HCl buffer, 20 μL; DTE, 10 μL; 1-malate, 20 μL; NAD, 10 μL; NADH, 25 μL; water, 80 μL; malic dehydrogenase, 5 μL. The contents are mixed and incubated for 2 min followed by the addition of 5 μL of citrate synthase.

| IC50 [nM] | SMILES |
| --- | --- |
| 3710 | OC(C1CC(N2CCCC2)=NO1)(C(F)(F)F)C(F)(F)F (stereo not drawn) [Example 9-2, 1,1,1,3,3,3-hexafluoro-2-(3-pyrrolidin-1-4,5-dihydroisoxazol-5-yl)propan-2-ol] |
| 127 | CC(C)N(C(=O)C1=NOC(C(O)(C(F)(F)F)C(F)(F)F)C1)C(C)C (stereo not drawn) [Example 8-3-3] |
| 739 | CN(CC#CC(O)(C(F)(F)F)C(F)(F)F)C(=O)CCc1ccccc1 [Example 7-1, N-methyl-3-phenyl-N-[5,5,5-trifluoro-4-hydroxy-4-(trifluoromethyl)pent-2-ynyl]propanamide] |
| 388 | Cc1ccc(C2=NOC(C(O)(C(F)(F)F)C(F)(F)F)C2)cc1 (stereo not drawn) [Example 11-1, 1,1,1,3,3,3-hexafluoro-2-[3-(4-methylphenyl)-4,5-dihydroisoxazol-5-yl]propan-2-ol] |

More lines, now with the values behind:

| SMILES | IC50 [nM] |
| --- | --- |
| O=CN(Cc1ccncc1)c1ncc(C(O)(C(F)(F)F)C(F)(F)F)s1 [Example 1-4, pyridin-4-yl methyl {5-[2,2,2-trifluoro-1-hydroxy-1-(trifluoromethyl)ethyl]-1,3-thiazol-2-yl}formamide] | 463 |
| CCCCN(C(=O)NCC)c1ncc(C(O)(C(F)(F)F)C(F)(F)F)s1 [Example 1-3-1, N-butyl-N′-ethyl-N-{5-[2,2,2-trifluoro-1-hydroxy-1-(trifluoromethyl)ethyl]-1,3-thiazol-2-yl}urea] | 213 |
| O=S(=O)(Nc1ncc(C(O)(C(F)(F)F)C(F)(F)F)s1)c1ccc(Cl)cc1 [Example 3, 4-chloro-N-{5-[2,2,2,-trifluoro-1-hydroxy-1-(trifluoromethyl)ethyl]-1,3-thiazol-2-yl}benzenesulfonamide] | 124 |

Test system: human breast cancer cells
Assay: not given
Conditions: breast carcinoma cells; cited from earlier work

| SMILES | malonyl-CoA level |
| --- | --- |
| CCCCCCCCCCCCCCOc1ccc(C(=O)O)o1 [TOFA, 5-(tetradecyloxy)-2-furoic acid] | 60 % of the control |

Same assay, conditions: human breast cancer cells and xenografts; cited from earlier work

| SMILES | antitumor activity |
| --- | --- |
| CCCCCCCCCCCCCCOc1ccc(C(=O)O)o1 [TOFA, 5-(tetradecyloxy)-2-furoic acid] | does not show any antitumor activity |

From patent US8119819B2 (Chugai Seiyaku Kabushiki Kaisha, priority 2001, dated 2012)
